The values that follow come from article PMC8041306 (Journal of Medicinal Chemistry, 2021).

Usually melting point stands for the temperature of the solid-liquid transition.

Molecules are shown by their SMILES.

In turn, `N=C(NCc1ccccc1)N1CCN2C(=O)OC(c3ccccc3)(c3ccccc3)C2C1` (stereo not shown) displayed a melting point of 68 to 69 °C. Then `Cc1ccc(C2(c3ccc(C)cc3)OC(=O)N3CCN(C(=O)NCc4ccc(F)cc4)CC32)cc1` (stereo not shown), with 89 to 90 °C; and `O=C(NCc1ccc(F)cc1)N1CCN2C(=O)OC(c3ccc(F)cc3)(c3ccc(F)cc3)C2C1` (stereo not shown), with 104 to 107 °C. Then `O=C(NCc1ccc(F)cc1)N1CCN2C(=O)OC(C3CCCCC3)(C3CCCCC3)C2C1` (stereo not shown), with 94 to 95 °C; and `C[C@H]1CN(C(=O)NCc2ccc(F)cc2)C[C@H]2N1C(=O)OC2(c1ccccc1)c1ccccc1`, with 153 to 156 °C; and `COc1ccccc1C1(c2ccccc2OC)OC(=O)N2CCN(C(=O)NCc3ccc(F)cc3)CC21` (stereo not shown), with 172 to 173 °C. Then `N=C(NCc1ccc(F)cc1)N1CCN2C(=O)OC(c3ccccc3)(c3ccccc3)C2C1` (stereo not shown) [Compound 16, N-(4-Fluorobenzyl)-3-oxo-1,1-diphenyltetrahydro-1H-oxazolo[3,4-a]pyrazine-7(3H)-carboximidamide], with 82 to 85 °C; and `O=C(NCc1ccc(F)cc1)N1CCN2C(=O)OC3(c4ccccc4-c4ccccc43)C2C1` (stereo not shown), with 120 to 123 °C. `CCCC1(CCC)OC(=O)N2CCN(C(=O)NCc3ccc(F)cc3)CC21` (stereo not shown) came in with a melting point of 74 to 77 °C. On to `CN(C)c1ccc(C2(c3ccc(N(C)C)cc3)OC(=O)N3CCN(C(=O)NCc4ccc(F)cc4)CC32)cc1` (stereo not shown), for which the melting point lay in the range of 110 to 113 °C. Then `Cc1ccccc1C1(c2ccccc2C)OC(=O)N2CCN(C(=O)NCc3ccc(F)cc3)CC21` (stereo not shown), with 217 to 219 °C. As to `O=C(NCc1ccc(F)cc1)N1CCN2C(=O)OC(c3ccc(Cl)cc3)(c3ccc(Cl)cc3)C2C1` (stereo not shown), the melting point was in the range of 77 to 79 °C.

For the compound `O=C(NCc1ccc(F)cc1)N1C[C@H](c2ccccc2)N2C(=O)OC(c3ccccc3)(c3ccccc3)[C@H]2C1` [Compound 21, (5S,8aR)-N-(4-Fluorobenzyl)-3-oxo-1,1,5-triphenyltetrahydro-1H-oxazolo[3,4-a]pyrazine-7(3H)-carboxamide], the melting point is 105 to 107 °C.
